Test results reported in BindingDB's records for patent WO2025049746 (Eikon Therapeutics, 2025).
pIC50: −log10 of the molar value.

Legend:
[1] = target: Bifunctional 3'-5' exonuclease/ATP-dependent helicase WRN (Homo sapiens, UniProt Q14191); assay: ADP-Glo Kinase Assay
Description: ATPase activity was measured using the ADP-Glo Kinase Assay following the manufacturers recommended protocol.

[2] = target: T1, Bifunctional 3'-5' exonuclease/ATP-dependent helicase WRN [480-1251] (UniProt Q14191); assay: Biochemical Activity Assays
T1 construct: 480-1251
T1 sequence (Q14191 480-1251): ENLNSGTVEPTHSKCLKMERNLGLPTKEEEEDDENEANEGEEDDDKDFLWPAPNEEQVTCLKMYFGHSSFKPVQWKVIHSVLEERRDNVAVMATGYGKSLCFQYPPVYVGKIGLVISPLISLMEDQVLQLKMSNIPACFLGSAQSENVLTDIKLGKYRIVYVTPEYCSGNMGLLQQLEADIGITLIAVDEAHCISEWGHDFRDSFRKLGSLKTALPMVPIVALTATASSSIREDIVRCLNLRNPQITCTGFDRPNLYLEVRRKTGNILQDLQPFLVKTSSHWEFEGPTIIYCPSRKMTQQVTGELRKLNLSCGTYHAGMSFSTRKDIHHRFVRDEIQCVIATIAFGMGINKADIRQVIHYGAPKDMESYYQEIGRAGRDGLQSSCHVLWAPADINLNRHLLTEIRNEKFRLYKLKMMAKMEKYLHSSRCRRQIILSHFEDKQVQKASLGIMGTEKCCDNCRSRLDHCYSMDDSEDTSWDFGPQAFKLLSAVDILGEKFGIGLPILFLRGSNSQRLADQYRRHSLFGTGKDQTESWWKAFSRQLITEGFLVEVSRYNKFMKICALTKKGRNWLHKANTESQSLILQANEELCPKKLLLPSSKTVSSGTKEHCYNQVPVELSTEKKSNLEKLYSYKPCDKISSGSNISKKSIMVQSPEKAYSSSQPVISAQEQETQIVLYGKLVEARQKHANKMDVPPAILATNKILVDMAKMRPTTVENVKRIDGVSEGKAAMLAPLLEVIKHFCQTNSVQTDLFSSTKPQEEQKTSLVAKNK

Bifunctional 3'-5' exonuclease/ATP-dependent helicase WRN, sequence (Q14191 whole entry): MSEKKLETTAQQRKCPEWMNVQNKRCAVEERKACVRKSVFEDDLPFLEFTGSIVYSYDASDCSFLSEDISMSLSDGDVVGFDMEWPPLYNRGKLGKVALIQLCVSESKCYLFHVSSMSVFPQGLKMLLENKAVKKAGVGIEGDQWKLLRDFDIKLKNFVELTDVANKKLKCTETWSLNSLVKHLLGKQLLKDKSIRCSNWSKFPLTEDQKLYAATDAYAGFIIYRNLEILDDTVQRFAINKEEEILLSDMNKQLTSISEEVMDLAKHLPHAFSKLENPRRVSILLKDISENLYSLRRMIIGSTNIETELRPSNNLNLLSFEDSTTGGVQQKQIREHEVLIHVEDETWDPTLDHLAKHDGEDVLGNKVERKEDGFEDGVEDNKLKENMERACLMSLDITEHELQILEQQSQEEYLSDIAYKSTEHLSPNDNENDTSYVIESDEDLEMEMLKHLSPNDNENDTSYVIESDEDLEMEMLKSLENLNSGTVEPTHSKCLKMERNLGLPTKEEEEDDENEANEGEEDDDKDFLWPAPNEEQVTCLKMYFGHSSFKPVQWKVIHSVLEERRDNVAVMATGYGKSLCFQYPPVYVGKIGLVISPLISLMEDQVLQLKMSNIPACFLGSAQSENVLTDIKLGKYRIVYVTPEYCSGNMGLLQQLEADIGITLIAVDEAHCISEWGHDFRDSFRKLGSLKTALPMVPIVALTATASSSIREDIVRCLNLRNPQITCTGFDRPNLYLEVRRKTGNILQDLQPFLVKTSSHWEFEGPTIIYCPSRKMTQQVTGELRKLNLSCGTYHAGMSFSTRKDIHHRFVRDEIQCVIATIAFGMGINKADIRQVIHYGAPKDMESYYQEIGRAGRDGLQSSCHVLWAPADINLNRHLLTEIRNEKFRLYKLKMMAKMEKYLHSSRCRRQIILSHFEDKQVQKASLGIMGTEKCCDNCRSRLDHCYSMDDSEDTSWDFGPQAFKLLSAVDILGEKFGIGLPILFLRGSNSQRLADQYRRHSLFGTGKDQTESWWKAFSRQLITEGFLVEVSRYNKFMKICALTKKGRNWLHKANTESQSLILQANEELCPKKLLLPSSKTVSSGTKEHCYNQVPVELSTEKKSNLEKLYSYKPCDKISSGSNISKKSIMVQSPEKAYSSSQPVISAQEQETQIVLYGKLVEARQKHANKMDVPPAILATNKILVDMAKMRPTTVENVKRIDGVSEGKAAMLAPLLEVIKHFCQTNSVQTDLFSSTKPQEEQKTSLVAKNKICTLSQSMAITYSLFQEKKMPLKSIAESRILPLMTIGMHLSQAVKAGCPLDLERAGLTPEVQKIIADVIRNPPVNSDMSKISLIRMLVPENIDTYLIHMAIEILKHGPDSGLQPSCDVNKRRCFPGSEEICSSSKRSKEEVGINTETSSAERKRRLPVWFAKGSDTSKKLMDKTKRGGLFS

| SMILES | pIC50 [1] | pIC50 [2] |
| --- | --- | --- |
| CCc1c(N2CCN(C(=O)c3nc4c(cc3O)CCC4)CC2)c(=O)n2nc(-c3ccc4c(c3)COC4)nc2n1CC(=O)Nc1ccc(C(F)(F)F)cc1Cl [WO2025049746, Example 417] | 6.97 | 7.08 |
| CCc1c(N2CCN(C(=O)c3ncnc(C)c3O)CC2)c(=O)n2nc(-c3ccc4c(c3)COC4)nc2n1CC(=O)Nc1cc(C2CC2)c(C(F)(F)F)cc1Cl [WO2025049746, Example 418] | 7.18 | 7.24 |
| C=C(c1ccc(NC(=O)Cn2c(CC)c(N3CCN(C(=O)c4ncnc(C)c4O)CC3)c(=O)n3nc(-c4ccc5c(c4)COC5)nc23)c(Cl)c1)C(F)(F)F [WO2025049746, Example 419] | 7.27 | 7.41 |
| CCc1c(N2CCN(C(=O)c3ncnc(C)c3O)CC2)c(=O)n2nc(-c3ccc4c(c3)COC4)nc2n1CC(=O)Nc1ccc(C2(C(F)(F)F)CC2)cc1Cl [WO2025049746, Example 420] | 7.00 | 7.19 |
| CCc1c(N2CCN(C(=O)c3ncnc(C)c3O)CC2)c(=O)n2nc(-c3ccc4c(c3)COC4)nc2n1CC(=O)Nc1ccc(C=C(F)F)cc1Cl [WO2025049746, Example 421] | 7.52 | 7.60 |
| CCc1c(N2CCN(C(=O)c3nc4n(c(=O)c3O)CCC4)CC2)c(=O)n2nc(-c3ccc4c(c3)COC4)nc2n1CC(=O)Nc1ccc(C(F)(F)F)cc1Cl [WO2025049746, Example 422] | 7.33 | 7.42 |
| CCc1c(N2CCN(C(=O)c3nc4c(cc3O)CCCC4)CC2)c(=O)n2nc(-c3ccc4c(c3)COC4)nc2n1CC(=O)Nc1ccc(C(F)(F)F)cc1Cl [WO2025049746, Example 423] | 6.77 | 6.82 |
| CCc1c(N2CCN(C(=O)c3ncnc(C)c3O)CC2)c(=O)n2nc(-c3ccc4c(c3)COC4)nc2n1CC(=O)Nc1c(Cl)cc(C(F)(F)F)c2scnc12 [WO2025049746, Example 424] | 7.33 | 7.43 |
| CCc1c(N2CCN(C(=O)c3cccc4c3NS(=O)(=O)CC4)CC2)c(=O)n2nc(-c3ccc4c(c3)COC4)nc2n1CC(=O)Nc1ccc(C(F)(F)F)cc1Cl [WO2025049746, Example 425] | 7.47 | 7.57 |
| CCc1c(N2CCN(C(=O)c3cccc4c3NS(=O)(=O)C=C4)CC2)c(=O)n2nc(-c3ccc4c(c3)COC4)nc2n1CC(=O)Nc1ccc(C(F)(F)F)cc1Cl [WO2025049746, Example 426] | 7.47 | 7.60 |
| CCc1c(N2CCN(C(=O)c3nc4n(c(=O)c3O)CCCC4)CC2)c(=O)n2nc(-c3ccc4c(c3)COC4)nc2n1CC(=O)Nc1ccc(C(F)(F)F)cc1Cl [WO2025049746, Example 427] | 7.72 | 7.72 |
| CCc1c(N2CCN(C(=O)c3ncnc(C)c3O)CC2)c(=O)n2nc(-c3ccc4c(c3)CCO4)nc2n1CC(=O)Nc1c(Cl)cc(C(F)(F)F)c2scnc12 [WO2025049746, Example 428] | 7.35 | 7.42 |
| CCc1c(N2CCN(C(=O)c3cc4nnn(C)c4cc3OC)CC2)c(=O)n2nc(-c3ccc4c(c3)COC4)nc2n1CC(=O)Nc1ccc(C(F)(F)F)cc1Cl [WO2025049746, Example 429] | 6.93 | 7.03 |
| CCc1c(N2CCN(C(=O)C3=CCOCC3)CC2)c(=O)n2nc(-c3ccnc(O)n3)nc2n1CC(=O)Nc1ccc(C(F)(F)F)cc1Cl [WO2025049746, Example 430] | 6.26 | 6.43 |
| CCc1c(N2CCN(C(=O)c3nc4c(cc3O)OCCC4)CC2)c(=O)n2nc(-c3ccc4c(c3)COC4)nc2n1CC(=O)Nc1ccc(C(F)(F)F)cc1Cl [WO2025049746, Example 432] | 7.06 | 7.12 |
| CCc1c(N2CCN(C(=O)c3cc4nnn(C)c4cc3O)CC2)c(=O)n2nc(-c3ccc4c(c3)COC4)nc2n1CC(=O)Nc1ccc(C(F)(F)F)cc1Cl [WO2025049746, Example 433] | 6.86 | 6.96 |
| CCc1c(N2CCN(C(C)=O)CC2)c(=O)n2nc(-c3ncc(O)cn3)nc2n1CC(=O)Nc1ccc(C(F)(F)F)cc1Cl [WO2025049746, Example 434] | 6.24 | 6.99 |
| CCc1c(N2CCN(C(=O)c3nc4c(cc3O)OCC4)CC2)c(=O)n2nc(-c3ccc4c(c3)COC4)nc2n1CC(=O)Nc1ccc(C(F)(F)F)cc1Cl [WO2025049746, Example 435] | 7.21 | 7.30 |
| CCc1c(N2CCN(C(=O)C3=CCOCC3)CC2)c(=O)n2nc(-c3ncc(O)cn3)nc2n1CC(=O)Nc1ccc(C(F)(F)F)cc1Cl [WO2025049746, Example 436] | 6.99 | 7.30 |
| CCc1c(N2CC[C@@H]3[C@@H]2CCCN3C(=O)c2ncnc(C)c2O)c(=O)n2nc(-c3ccc4c(c3)COC4)nc2n1CC(=O)Nc1ccc(C(F)(F)F)cc1Cl [WO2025049746, Example 438] | 7.60 | 7.55 |
| CCc1c(N2CCN(C(=O)c3nocc3O)CC2)c(=O)n2nc(-c3ccc4c(c3)COC4)nc2n1CC(=O)Nc1ccc(C(F)(F)F)cc1Cl [WO2025049746, Example 439] | 7.30 | 7.28 |
| CCc1c(N2CCN(C(=O)c3nc4c(cc3O)COCC4)CC2)c(=O)n2nc(-c3ccc4c(c3)COC4)nc2n1CC(=O)Nc1ccc(C(F)(F)F)cc1Cl [WO2025049746, Example 440] | 7.34 | 7.32 |
| CCc1c(N2CCN(C(=O)c3nc4c(cc3O)CCOC4)CC2)c(=O)n2nc(-c3ccc4c(c3)COC4)nc2n1CC(=O)Nc1ccc(C(F)(F)F)cc1Cl [WO2025049746, Example 441] | 7.17 | 7.24 |

The next lines start with the values.

| pIC50 [1] | pIC50 [2] | SMILES |
| --- | --- | --- |
| 7.27 | 7.17 | CCc1c(N2CCN(C(=O)c3ncnc(C)c3O)CC2)c(=O)n2nc(-c3ccc4c(c3)COC4)nc2n1CC(=O)Nc1c(Cl)cc(C(F)(F)F)c2c1OCC2 [WO2025049746, Example 442] |
| 7.19 | 7.19 | CCc1c(N2CCN(C(=O)c3nsc(N4CCN(C)CC4)c3O)CC2)c(=O)n2nc(-c3ccc4c(c3)COC4)nc2n1CC(=O)Nc1ccc(C(F)(F)F)cc1Cl [WO2025049746, Example 443] |
| 7.36 | 7.40 | CCc1c(N2CCN(C(=O)c3ncnc4cc[nH]c34)CC2)c(=O)n2nc(-c3ccc4c(c3)COC4)nc2n1CC(=O)Nc1ccc(C(F)(F)F)cc1Cl [WO2025049746, Example 444] |
| 7.14 | 7.15 | CCc1c(N2CCN(C(=O)c3nsc(N4CCOCC4)c3O)CC2)c(=O)n2nc(-c3ccc4c(c3)COC4)nc2n1CC(=O)Nc1ccc(C(F)(F)F)cc1Cl [WO2025049746, Example 445] |
| 7.70 | 7.70 | CCc1c(N2CCN(C(=O)c3nocc3O)CC2)c(=O)n2nc(-c3ccc4c(c3)COC4)nc2n1CC(=O)Nc1ccc(C(F)(F)F)cc1Cl [WO2025049746, Example 446] |
| 7.42 | 7.42 | CCc1c(N2CCN(C(=O)c3ncnc(C)c3O)CC2)c(=O)n2nc(-c3ccc4c(c3)COC4)nc2n1CC(=O)Nc1c(Cl)cc(C(F)(F)F)c2ccoc12 [WO2025049746, Example 447] |
| 7.31 | 7.38 | CCc1c(N2CCN(C(=O)c3nsc(-c4ccncc4)c3O)CC2)c(=O)n2nc(-c3ccc4c(c3)COC4)nc2n1CC(=O)Nc1ccc(C(F)(F)F)cc1Cl [WO2025049746, Example 448] |
| 7.40 | 7.35 | CCc1c(N2CCN(C(=O)c3c(C#N)cnc(C)c3O)CC2)c(=O)n2nc(-c3ccc4c(c3)COC4)nc2n1CC(=O)Nc1ccc(C(F)(F)F)cc1Cl [WO2025049746, Example 449] |
| 6.97 | 6.99 | CCc1c(N2CCN(C(=O)c3cc(N4CCN(C)CC4)nc(C)c3O)CC2)c(=O)n2nc(-c3ccc4c(c3)COC4)nc2n1CC(=O)Nc1ccc(C(F)(F)F)cc1Cl [WO2025049746, Example 450] |
| 5.16 | 5.16 | CCc1c(N2CCN(C(=O)c3ncnc(C)c3O)CC2)c(=O)n2c(C)c(-c3ccc4c(c3)COC4)nc2n1CC(=O)Nc1ccc(C(F)(F)F)cc1Cl [WO2025049746, Example 451] |
| 5.01 | 4.53 | CCc1c(N2CCN(C(=O)c3ncnc(C)c3O)CC2)c(=O)n2c(CO)c(-c3ccc4c(c3)COC4)nc2n1CC(=O)Nc1ccc(C(F)(F)F)cc1Cl [WO2025049746, Example 452] |
| 7.41 | 7.30 | CCc1c(N2CCN(C(=O)c3ncnc(C)c3O)C[C@@H]2C)c(=O)n2nc(-c3ccc4c(c3)COC4(C)C)nc2n1CC(=O)Nc1ccc(C(F)(F)F)cc1Cl [WO2025049746, Example 453] |
| 6.31 | 6.43 | CCc1c(N2CCN(C(=O)c3nccc4cc[nH]c34)CC2)c(=O)n2nc(-c3ccc4c(c3)COC4(C)C)nc2n1CC(=O)Nc1ccc(C(F)(F)F)cc1Cl [WO2025049746, Example 454] |
| 7.40 | 7.32 | CCc1c(N2CCN(C(=O)c3ccnc(C)c3O)CC2)c(=O)n2nc(-c3ccc4c(c3)COC4(C)C)nc2n1CC(=O)Nc1ccc(C(F)(F)F)cc1Cl [WO2025049746, Example 455] |
| 7.24 | 7.26 | CCc1c(N2CCN(C(=O)c3nccc4nc[nH]c34)CC2)c(=O)n2nc(-c3ccc4c(c3)COC4(C)C)nc2n1CC(=O)Nc1ccc(C(F)(F)F)cc1Cl [WO2025049746, Example 456] |
| 7.41 | 7.40 | CCc1c(N2CCN(C(=O)c3ncnc(C)c3O)[C@H](C)C2)c(=O)n2nc(-c3ccc4c(c3)COC4(C)C)nc2n1CC(=O)Nc1ccc(C(F)(F)F)cc1Cl [WO2025049746, Example 457] |
| 7.05 | 7.03 | CCc1c(N2CCN(C(=O)c3ncnc(C)c3O)[C@H]3CC[C@@H]32)c(=O)n2nc(-c3ccc4c(c3)COC4(C)C)nc2n1CC(=O)Nc1ccc(C(F)(F)F)cc1Cl [WO2025049746, Example 458] |
| 7.04 | 7.09 | CCc1c(N2CCN(C(=O)c3ncnc(C)c3O)[C@@H]3CC[C@@H]32)c(=O)n2nc(-c3ccc4c(c3)COC4(C)C)nc2n1CC(=O)Nc1ccc(C(F)(F)F)cc1Cl [WO2025049746, Example 459] |
| 7.28 | 7.35 | CCc1c(N2CCN(C(=O)c3ncnc(C)c3O)[C@H]3CC[C@H]32)c(=O)n2nc(-c3ccc4c(c3)COC4(C)C)nc2n1CC(=O)Nc1ccc(C(F)(F)F)cc1Cl [WO2025049746, Example 460] |
